Measured values reported in US9499502B2, “5-substituted iminothiazines and their mono- and dioxides as BACE inhibitors, compositions, and their use” (Merck Sharp & Dohme Corp., priority 2011, dated 2016).

Biological target: soluble human BACE1 catalytic domain (Homo sapiens (Human), UniProt P56817)
Test: BACE1 HTRF FRET Assay
Details: BACE1 Ki (nM), Ki calculated from IC50 using the Cheng-Prusoff equation

Chain of soluble human BACE1 catalytic domain (P56817 75-416): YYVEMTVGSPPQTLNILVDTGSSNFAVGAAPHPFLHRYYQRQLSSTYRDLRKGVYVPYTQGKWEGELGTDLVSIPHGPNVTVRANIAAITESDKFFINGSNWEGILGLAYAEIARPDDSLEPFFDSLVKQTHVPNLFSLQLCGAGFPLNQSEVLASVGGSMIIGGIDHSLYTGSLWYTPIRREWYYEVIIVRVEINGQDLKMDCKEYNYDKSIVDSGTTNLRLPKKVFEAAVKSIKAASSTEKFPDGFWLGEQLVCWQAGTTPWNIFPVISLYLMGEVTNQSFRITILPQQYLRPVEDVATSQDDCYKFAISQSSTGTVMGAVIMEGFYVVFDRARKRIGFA

Row | Ki | Structure (SMILES)
1 | < 5 nM | CC1(C)C(=N)N[C@](C)(c2cc(NC(=O)c3ncc(F)cc3F)ccc2F)CS1(=O)=O [Example 2]

Same assay, conditions: read-out: BACE1 % Inh. at 10 μM, at 10 μM

Row | inhibition at 10 µM | Structure (SMILES)
2 | 29% | CC1(C)C(=N)N[C@](C)(c2nc(-c3cncc(C#N)c3)ccc2F)CS1(=O)=O [Example 16d]
3 | 48% | CC1(C)C(=N)N[C@](C)(c2cc(NC(=O)C3CCOCC3)cc(F)c2F)CS1(=O)=O [Example 9bb]

Same assay, conditions: read-out: BACE1 Ki

Row | Ki | Structure (SMILES)
4 | 70.9 nM | CC1(C)C(=N)N[C@](C)(c2sc(-c3cccc(OC(F)(F)F)c3)cc2Cl)CS1(=O)=O [Example 27h]
5 | 2720 nM | C[C@@]1(c2ccccn2)C(=N)N[C@](C)(c2sc(-c3cccc(C#N)c3)cc2F)CS1(=O)=O [Example 27bo-b]
6 | 7310 nM | COc1cccc(-c2cc(F)c([C@]3(C)CS(=O)(=O)[C@](C)(CC(F)(F)F)C(=N)N3)s2)c1 [Example 27bl-b]
7 | 132 nM | C[C@@]1(c2sc(-c3cccc(C#N)c3)cc2F)CS(=O)(=O)[C@@](C)(c2ccccn2)C(=N)N1 [Example 27bo-a]
8 | 2330 nM | CC1(C)C(=N)N[C@](C)(c2nc3ccc(-c4ccc(F)cc4)cc3s2)CS1(=O)=O [Example 29b]
9 | 396 nM | C[C@@]1(c2ccccn2)C(=N)N[C@](C)(c2sc(-c3cccc(-c4nnco4)c3)cc2F)CS1(=O)=O [Example 27bp-b]
10 | 1130 nM | C[C@@]1(c2ccc(F)cc2F)CS(=O)(=O)[C@@](C)(c2cccc(OCC3CC3)c2)C(=N)N1 [Example 34b]
11 | 1180 nM | CC1(C)C(=N)N[C@](C)(c2sc(-c3cc4ccccc4s3)cc2Cl)CS1(=O)=O [Example 27f]
12 | 273 nM | CC1(C)C(=N)N[C@](C)(c2sc(-c3ccn4ncnc4c3)cc2Cl)CS1(=O)=O [Example 27n]
13 | 14 nM | CC1(C)C(=N)N[C@](C)(c2sc(-c3cncc(-c4nnco4)c3)cc2F)CS1(=O)=O [Example 27az]
14 | 450 nM | C[C@@]1(c2sc(-c3nnc(-c4ccc(Cl)cc4)o3)cc2F)CS(=O)(=O)[C@](C)(CC(F)(F)F)C(=N)N1 [Example 27by-b]
15 | 448 nM | COCCn1cc(-c2cc(Cl)c([C@]3(C)CS(=O)(=O)C(C)(C)C(=N)N3)s2)cn1 [Example 27r]
16 | 11 nM | CC1(C)C(=N)N[C@](C)(c2sc(-c3cccc(-c4nnco4)c3)cc2F)CS1(=O)=O [Example 27ar]
17 | 93.8 nM | CC1(C)C(=N)N[C@](C)(c2cc(-c3cncc(-c4cnco4)c3)cs2)CS1(=O)=O [Example 27al]
18 | 125 nM | Cc1noc(-c2cccc(-c3cc(F)c([C@]4(C)CS(=O)(=O)C(C)(C)C(=N)N4)s3)c2)n1 [Example 27aw]
19 | 80.6 nM | CC1(C)C(=N)N[C@](C)(c2cc(-c3cc(F)cc(-c4cnco4)c3)cs2)CS1(=O)=O [Example 27am]
20 | 5150 nM | CC1(C)C(=N)N[C@](C)(c2sc(-c3ccc(F)c(C#N)c3)cc2Cl)CS1(=O)=O [Example 27j]
21 | 829 nM | C[C@@]1(c2sc(-c3cccc(C#N)c3)cc2F)CS(=O)(=O)[C@](C)(CC(F)(F)F)C(=N)N1 [Example 27bj-b]

Same assay, conditions: read-out: BACE1 Ki; Ki calculated from IC50 using the Cheng-Prusoff equation

Row | Ki | Structure (SMILES)
22 | 49.2 nM | CC1(C)C(=N)N[C@](C)(c2sc(-c3nnc(-c4ccc(C#N)cc4)o3)cc2Cl)CS1(=O)=O [Example 27be]
23 | 4960 nM | Cc1noc(CC(=O)Nc2cc(F)c(F)c([C@]3(C)CS(=O)(=O)C(C)(C)C(=N)N3)c2)n1 [Example 9bq]
24 | 721 nM | CC1(C)C(=N)N[C@](C)(c2cc(NC(=O)C3CCC3)cc(F)c2F)CS1(=O)=O [Example 9bt]
25 | 3.6 nM | C[C@@]1(c2cc(NC(=O)c3ccc(F)cn3)ccc2F)CS(=O)(=O)[C@@](C)(c2cccc(F)c2)C(=N)N1 [Example 9da-a]
26 | 3 nM | COc1ccc(C(=O)Nc2ccc(F)c([C@]3(C)CS(=O)(=O)[C@@](C)(C4CCOCC4)C(=N)N3)c2)nc1 [Example 9dt-a]
27 | 21.4 nM | C[C@@]1(c2cc(NC(=O)c3ccc(F)cn3)ccc2F)CS(=O)(=O)[C@@](C)(c2ccccc2F)C(=N)N1 [Example 9dn-a]
28 | 7.1 nM | COc1ccc(C(=O)Nc2ccc(F)c([C@]3(C)CS(=O)(=O)[C@@](C)(c4ccccn4)C(=N)N3)c2)nc1 [Example 9cx-a]
29 | 186 nM | CC1(C)C(=N)N[C@](C)(c2sc(C(=O)NCc3cnsn3)cc2Cl)CS1(=O)=O [Example 22r]
30 | 3240 nM | Cc1noc(CC(=O)Nc2ccc(F)c([C@]3(C)CS(=O)(=O)C(C)(C)C(=N)N3)c2)n1 [Example 9ao]
31 | 76.1 nM | COc1ccc(-c2nnc(-c3cc(Cl)c([C@]4(C)CS(=O)(=O)C(C)(C)C(=N)N4)s3)o2)cc1 [Example 27bd]
32 | 7880 nM | Cc1cccc(CNC(=O)c2cc(Cl)c([C@]3(C)CS(=O)(=O)C(C)(C)C(=N)N3)s2)n1 [Example 22c]
33 | 19 nM | CC1(C)C(=N)N[C@](C)(c2cc(NC(=O)c3ccc(Cl)cc3)ccc2F)CS1(=O)=O [Example 8]
34 | 195 nM | CC1(C)C(=N)N[C@](C)(c2cc(NC(=O)C(F)F)ccc2F)CS1(=O)=O [Example 9au]
35 | 48 nM | CC1(C)C(=N)N[C@](C)(c2nc(NC(=O)c3ccc(F)cn3)ccc2F)CS1(=O)=O [Example 9cd]
36 | 3520 nM | CC1(C)C(=N)N[C@](C)(c2sc(C(=O)NCc3ncccn3)cc2Cl)CS1(=O)=O [Example 22b]
37 | 0.9 nM | CC1(C)C(=N)N[C@](C)(c2cc(NC(=O)c3ncc(F)cc3F)ccc2F)CS1(=O)=O [Example 2]
38 | 3.9 nM | COc1cnc(C(=O)Nc2ccc(F)c([C@]3(C)CS(=O)(=O)[C@@](C)(CC4CCOCC4)C(=N)N3)c2)cn1 [Example 9ct-a]
39 | 5.3 nM | CC1(C)C(=N)N[C@](C)(c2cc(NC(=O)c3cnc(C(F)F)cn3)cc(F)c2F)CS1(=O)=O [Example 9r]
40 | 15.1 nM | C[C@@]1(c2cc(NC(=O)c3ccc(F)cn3)ccc2F)CS(=O)(=O)[C@@](C)(c2cc(C(F)(F)F)ccn2)C(=N)N1 [Example 9ed-b]
41 | 663 nM | CC1(C)C(=N)N[C@](C)(c2cc(NC(=O)CC(F)(F)F)ccc2F)CS1(=O)=O [Example 9ag]
42 | 1620 nM | CC1(C)C(=N)N[C@](C)(c2sc(C(=O)NCc3ccccc3Cl)cc2Cl)CS1(=O)=O [Example 22h]
43 | 265 nM | CC1(C)C(=N)N[C@](C)(c2sc(C(=O)Nc3cccc(F)n3)cc2Cl)CS1(=O)=O [Example 21]
44 | 610 nM | CC1(C)C(=N)N[C@](C)(c2cc(NC(=O)C3CCC3(F)F)cc(F)c2F)CS1(=O)=O (stereo partly drawn) [Example 9br]
45 | 739 nM | CC1(C(=O)Nc2ccc(F)c([C@]3(C)CS(=O)(=O)C(C)(C)C(=N)N3)c2)COC1 [Example 9af]
46 | 485 nM | CC1(C)C(=N)N[C@](C)(c2cc(NC(=O)C3(C#N)CC3)cc(F)c2F)CS1(=O)=O [Example 9bj]
47 | 64.3 nM | CC1(C)C(=N)N[C@](C)(c2sc(-c3cccc(-c4ccno4)c3)cc2Cl)CS1(=O)=O [Example 27d]
48 | 171 nM | CC1(C)C(=N)N[C@](C)(c2cc(NC(=O)c3ccno3)cc(F)c2F)CS1(=O)=O [Example 9bs]
49 | 11 nM | CC1(C)C(=N)N[C@](C)(c2cc(NC(=O)c3ccc(F)cc3F)ccc2F)CS1(=O)=O [Example 9f]

Same assay, conditions: read-out: BACE1 inhibition, Ki

Row | Ki | Structure (SMILES)
50 | 2900 nM | C[C@@]1(c2cc(F)ccc2F)CS(=O)(=O)[C@@](C)(c2cccc(OCc3ccccc3)c2)C(=N)N1 [Example 34d-a]
51 | 1800 nM | C[C@]1(CC2CC2)C(=N)N[C@](C)(c2cc(N)ccc2F)CS1(=O)=O [Entry 47]
52 | 6600 nM | C[C@@]1(c2cc(N)ccc2F)CS(=O)(=O)[C@@](C)(c2ccccn2)C(=N)N1 [Entry 76]
53 | 3000 nM | C[C@]1(CC(F)(F)F)C(=N)N[C@](C)(c2cc(N)ccc2F)CS1(=O)=O [Entry 35]

Row | Structure (SMILES) | Ki
54 | CC1(C)C(=N)N[C@](C)(c2c(F)cccc2F)CS1(=O)=O [Entry 11] | 1300 nM
